US20040029928A1, “Novel propenohydroxamic acid derivatives” (priority 2000, published 2004)

Row | Compound | melting point [°C]
1 | COc1ccc(C(=O)Nc2cccc(C(=CC(=O)NO)c3cccc(NC(=O)c4ccc(OC)cc4)c3)c2)cc1 [Compound 39, 3,3-bis[3-(4-Methoxybenzoylamino)phenyl]propenohydroxamic Acid] | 198 to 200
2 | COc1ccc(NC(=S)Nc2cccc(/C(=C\C(=O)NO)c3ccccc3)c2)cc1 [Compound 58, Z-3-[3-[3-(4-Methoxyphenyl)thioureido]phenyl]-3-phenylpropenohydroxamic Acid] | 176 to 179
3 | O=C(/C=C(/c1ccccc1)c1cccc(N(Cc2cccnc2)S(=O)(=O)c2ccc3ccccc3c2)c1)NO [Compound 67, Z-3-[3-[N-(2-Naphthalenesulfonyl)-N-(3-pyridylmethyl)amino]phenyl]-3-phenylpropenohydroxamic Acid] | 168 to 170
4 | COc1ccc(NC(=O)Nc2cccc(/C(=C\C(=O)NO)c3ccccc3)c2)cc1 [Compound 57, Z-3-[3-[3-(4-Methoxyphenyl)ureido]phenyl]-3-phenylpropenohydroxamic Acid] | 190 to 192
5 | COc1ccc(S(=O)(=O)Nc2ccc(/C(=C\C(=O)NO)c3ccccc3)cc2)cc1 [Compound 54, Z-3-[4-(4-Methoxybenzenesulfonylamino)phenyl]-3-phenylpropenohydroxamic Acid] | 188 to 191
6 | O=C(C=C(c1cccc(NS(=O)(=O)c2cccc3cccnc23)c1)c1cccc(NS(=O)(=O)c2cccc3cccnc23)c1)NO [Compound 46, 3,3-bis[3-(8-Quinolinesulfonylamino)phenyl]propenohydroxamic Acid] | 152 to 156
7 | O=C(NO)C(F)=C(c1cccc(NS(=O)(=O)c2cccc3cccnc23)c1)c1cccc(NS(=O)(=O)c2cccc3cccnc23)c1 [Compound 49, 2-Fluoro-3,3-bis[3-(8-quinolinesulfonylamino)phenyl]propenohydroxamic Acid] | 150 to 153
8 | O=C(C=C(c1cccc(NS(=O)(=O)c2ccc(Br)cc2)c1)c1cccc(NS(=O)(=O)c2ccc(Br)cc2)c1)NO [Compound 40, 3,3-bis [3-(4-Bromobenzenesulfonylamino)phenyl]propenohydroxamic Acid] | 137 to 141
9 | O=C(/C=C(/c1ccccc1)c1cc(NS(=O)(=O)c2ccc3ccccc3c2)ccc1Cl)NO [Compound 36, Z-3-[2-Chloro-5-(2-naphthalenesulfonylamino)phenyl]-3-phenylpropenohydroxamic Acid] | 173 to 175
10 | CN(C)c1cccc2c(S(=O)(=O)N(C)c3cccc(/C(=C\C(=O)NO)c4ccccc4)c3)cccc12 [Compound 74, Z-3-[3-[N-(5-(Dimethylamino)-1-naphthalenesulfonyl)-N-methylamino]phenyl]-3-phenylpropenohydroxamic acid] | 96 to 99
11 | COc1ccc(OC)c(S(=O)(=O)N(C)c2cccc(/C(=C\C(=O)NO)c3ccccc3)c2)c1 [Compound 76, Z-3-[3-[N-(2,5-Dimethoxybenzenesulfonyl)-N-methylamino]phenyl]-3-phenylpropenohydroxamic acid] | 151 to 153
12 | O=C(/C=C(/c1ccccc1)c1cccc(NS(=O)(=O)c2cccc3ccccc23)c1)NO [Compound 27, Z-3-[3-(1-Naphthalenesulfonylamino)phenyl]-3-phenylpropenohydroxamic Acid] | 160 to 163
13 | O=C(C=C(c1cccc(NS(=O)(=O)c2ccc3ccccc3c2)c1)c1cccc(NS(=O)(=O)c2ccc3ccccc3c2)c1)NO [Compound 45, 3,3-bis[3-(2-Naphthalenesulfonylamino)phenyl]propenohydroxamic Acid] | 128 to 131

Continued, values first:

Row | melting point [°C] | Compound
14 | 127 to 129 | O=C(/C=C(/c1ccccc1)c1cccc(N(CCc2ccccc2)S(=O)(=O)c2ccc3ccccc3c2)c1)NO [Compound 66, Z-3-[3-[N-(2-Naphthalenesulfonyl)-N-(2-phenylethyl)amino]phenyl]-3-phenylpropenohydroxamic Acid]
15 | 158 to 159 | O=C(/C=C(/c1ccccc1)c1cccc(NS(=O)(=O)N2CCCCC2)c1)NO [Compound 26, Z-3-[3-(1-Piperidinesulfonylamino)phenyl]-3-phenylpropenohydroxamic Acid]
16 | 151 to 153 | CCCN(c1cccc(/C(=C\C(=O)NO)c2cccnc2)c1)S(=O)(=O)c1ccc(OC)cc1 [Compound 115, E-3-[3-[N-(4-Methoxybenzenesulfonyl)-N-propylamino]phenyl]-3-(3-pyridyl)propenohydroxamic Acid]
17 | 127 to 130 | COc1ccc(S(=O)(=O)Nc2ccc(Cl)c(/C(=C\C(=O)NO)c3ccccc3)c2)cc1OC [Compound 37, Z-3-[2-Chloro-5-(3,4-dimethoxybenzenesulfonylamino)phenyl]-3-phenylpropenohydroxamic Acid]
18 | 132 to 135 | COc1ccc(S(=O)(=O)Nc2cccc(C(=CC(=O)NO)c3cccc(NS(=O)(=O)c4ccc(OC)c(OC)c4)c3)c2)cc1OC [Compound 44, 3,3-bis[3-(3,4-Dimethoxybenzenesulfonylamino)phenyl]propenohydroxamic Acid]
19 | 88 to 90 | O=C(/C=C(/c1ccccc1)c1cccc(N(Cc2ccccc2)S(=O)(=O)c2ccc3ccccc3c2)c1)NO [Compound 65, Z-3-[3-[N-(2-Naphthalenesulfonyl)-N-benzylamino]phenyl]-3-phenylpropenohydroxamic Acid]
20 | 134 to 137 | COc1ccc(C(=O)Nc2cccc(/C(=C\C(=O)NO)c3ccccc3)c2)cc1 [Compound 53, Z-3-[3-(4-Methoxybenzoylamino)phenyl]-3-phenylpropenohydroxamic Acid]
21 | 146 to 148 | O=C(/C=C(/c1ccccc1)c1ccc(NS(=O)(=O)c2ccc([N+](=O)[O-])cc2)cc1)NO [Compound 35, Z-3-[4-(4-Nitrobenzenesulfonylamino)phenyl]-3-phenylpropenohydroxamic Acid]
22 | 123 to 125 | CN(C)c1cccc2c(S(=O)(=O)Nc3cccc(/C(=C\C(=O)NO)c4ccccc4)c3)cccc12 [Compound 30, Z-3-[3-[5-(Dimethylamino)-1-naphthalenesulfonylamino)phenyl]-3-phenylpropenohydroxamic Acid]
23 | 195 to 197 | COc1ccc(S(=O)(=O)N(c2cccc(/C(=C/C(=O)NO)c3cccnc3)c2)C(C)C)cc1 [Compound 114, Z-3-[3-[N-(4-Methoxybenzenesulfonyl)-N-isopropylamino]phenyl]-3-(3-pyridyl)propenohydroxamic acid]
